Measured values reported in patent publication US20240025919A1, “AZA-TETRACYCLIC OXAZEPINE COMPOUNDS AND USES THEREOF” (Genentech, Inc., priority 2022, published 2024).
Where two headings read alike, the source gives them in different places.

What was measured:
KRAS G12D = KRAS G12D (Homo sapiens (Human), UniProt P01116, G12D); assay: KRAS G12D LoEnz Biochemical Assay, BODIPY-GDP Exchange TR-FRET (SOS1-mediated nucleotide exchange); settings: read-out: KRas (G12D) GDP HTRF IC50
Description: Example 500: KRAS G12D LoEnz Biochemical Assay, BODIPY-GDP Exchange TR-FRET. Biochemical compound potencies are assessed by evaluating inhibition of SOS1I-mediated nucleotide exchange in KRAS G121D. In this assay, the SOS1-promoted exchange of fluorescently-labeled GDP (BOPIDY-GDP) is monitored by time-resolved fluorescence resonance energy transfer (TR-FRET). Compounds solubilized in DMS0 are dispensed as concentration series into 384-well white assay plates. A preformed complex of biotin-tagged recombinant human KRAS (0.06 nM mutant G1 2D) and 0.06 nM terbium-labeled streptavidin (CisBIO) prepared in 10 uL/well assay buffer (20 mM HEPES, pH 7.5, 50 mM NaCl, 10 mMMMgCl2, 0.0100 Tween-20 and 1 mM dithiothreitol) is added and allowed to incubate for 10-minutes at room temperature. The reaction is initiated with the addition of 5 uL 300 nM recombinant human SOS1 and 300 nM BODIPY-GDP in assay buffer. After a 120-minute incubation, the fluorescence is measured with excitation at 337 nm and emission at 490 and 520 nm. The TR-FRET ratio is determined as the fluorescence at 520 nm divided by the fluorescence at 490 nm multiplied by 10,000. The results are normalized to percent inhibition based on control samples: DMSO (0% inhibition) and control compound at a concentration that inhibits completely (100% inhibition). The normalized TR-FRET results are plotted against compound concentration, and the data are fit to a 4-parameter Hill equation to determine the IC50 values.

KRAS WT = KRAS WT (Homo sapiens (Human), UniProt P01116); assay: KRAS WT Biochemical Assay, BODIPY-GDP Exchange TR-FRET (Example 501; 3 nM KRAS WT, 3 nM SOS1, 60-minute incubation)
Description: Example 501: KRAS WT Biochemical Assay, BODIPY-GDP Exchange TR-FRET. Biochemical compound potencies are assessed by evaluating inhibition of SOS1-mediated nucleotide exchange in KRAS WT. In this assay, the SOS1-promoted exchange of fluorescently-labeled GDP (BOPIDY-GDP) is monitored by time-resolved fluorescence resonance energy transfer (TR-FRET). Compounds solubilized in DMSO are dispensed as concentration series into 384-well white assay plates, and 5 uL assay buffer (20 mM HEPES, pH 7.5, 50 mM NaCl, 10 mM MgCl2, 0.01% Tween-20 and 1 mM dithiothreitol) is added just prior to the start of the assay. A preformed complex of 3 nM biotin-tagged recombinant human KRAS WT and 0.3 nM terbium-labeled streptavidin (CisBIO) prepared in 5 uL/well assay buffer is added and allowed to incubate for 10-minutes at room temperature. The reaction is initiated with the addition of 5 uL 3 nM recombinant human SOS1 and 300 nM BODIPY-GDP in assay buffer. After a 60-minute incubation, the fluorescence is measured with excitation at 337 nm and emission at 490 and 520 nm. The TR-FRET ratio is determined as the fluorescence at 520 nm divided by the fluorescence at 490 nm multiplied by 10,000. The results are normalized to percent inhibition based on control samples: DMSO (0% inhibition) and control compound at a concentration that inhibits completely (100% inhibition). The normalized TR-FRET results are plotted against compound concentration, and the data are fit to a 4-parameter Hill equation to determine the IC50 values.

[1] = read-out: KRas(wt) GDP HTRF IC50

Sequence of KRAS G12D (P01116-2 other isoform, or with tags, fused parts or gaps G12D): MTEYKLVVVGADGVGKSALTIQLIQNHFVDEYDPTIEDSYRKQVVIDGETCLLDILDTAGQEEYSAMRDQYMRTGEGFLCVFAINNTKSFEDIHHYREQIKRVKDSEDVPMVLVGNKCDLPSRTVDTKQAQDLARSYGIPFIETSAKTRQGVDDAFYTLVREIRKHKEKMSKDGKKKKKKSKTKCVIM
Sequence of KRAS WT (P01116-2 other isoform, or with tags, fused parts or gaps): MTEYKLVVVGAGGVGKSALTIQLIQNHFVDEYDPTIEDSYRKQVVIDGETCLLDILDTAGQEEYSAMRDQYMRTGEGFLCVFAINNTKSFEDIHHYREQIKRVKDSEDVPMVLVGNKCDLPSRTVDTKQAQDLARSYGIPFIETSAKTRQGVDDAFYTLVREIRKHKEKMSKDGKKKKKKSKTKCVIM

SMILES | IC50 (KRAS G12D) [nM] | IC50 (KRAS WT; [1]) [nM] | IC50 (KRAS WT; read-out: KRas HTRF IC50) [nM]
Cc1cc(N)c(F)c(-c2nc3c4c(ncnc4c2Cl)N2C[C@H]4CC[C@H](N4)[C@H]2[C@H](C)O3)c1C(F)(F)F (atropisomer, axis not shown) [Compound 95, 3-((5S,5aS,6S,9R)-1-chloro-5-methyl-5a,6,7,8,9,10-hexahydro-5H-4-oxa-3,10a,11,13,14-pentaaza-6,9-methanonaphtho[1,8-ab]heptalen-2-yl)-2-fluoro-5-methyl-4-(trifluoromethyl)aniline] | 26.6 | – | –
Cc1cc(N)c(F)c(-c2nc3c4c(nc(OCC56CCN5CC(F)(F)C6)nc4c2F)N2C[C@H]4CC[C@H](N4)[C@H]2[C@H](C)O3)c1C(F)(F)F (mixture of isomers) [Compound 33, 3-((5S,5aS,6S,9R)-12-((3,3-Difluoro-1-azabicyclo[3.2.0]heptan-5-yl)methoxy)-1-fluoro-5-methyl-5a,6,7,8,9,10-hexahydro-5H-4-oxa-3,10a,11,13,14-pentaaza-6,9-methanonaphtho[1,8-ab]heptalen-2-yl)-2-fluoro-5-methyl-4-(trifluoromethyl)aniline] | 0.23 | 7.53 | –
Cc1c(F)c(N)cc(-c2nc3c4c(nc(OCC56CCN5CC(F)(F)C6)nc4c2F)N2C[C@H]4CC[C@H](N4)[C@H]2[C@H](C(F)(F)F)O3)c1C(F)(F)F (mixture of isomers) [Compound 244, 5-((5R,5aS,6S,9R)-12-((3,3-Difluoro-1-azabicyclo[3.2.0]heptan-5-yl)methoxy)-1-fluoro-5-(trifluoromethyl)-5a,6,7,8,9,10-hexahydro-5H-4-oxa-3,10a,11,13,14-pentaaza-6,9-methanonaphtho[1,8-ab]heptalene-2-yl)-2-fluoro-3-methyl-4-(trifluoromethyl)aniline] | 0.52 | – | 11.9
Cc1nc(N)cc(-c2nc3c4c(nc(OCC5(CN6CC7CC(F)(F)C7C6)CC5)nc4c2F)N2C[C@H]4CC[C@H](N4)[C@H]2[C@H](C)O3)c1C(F)(F)F (mixture of isomers) [Compound 264, 4-((5S,5aS,6S,9R)-12-((1-((6,6-difluoro-3-azabicyclo[3.2.0]heptan-3-yl)methyl)cyclopropyl)methoxy)-1-fluoro-5-methyl-5a,6,7,8,9,10-hexahydro-5H-4-oxa-3,10a,11,13,14-pentaaza-6,9-methanonaphtho[1,8-ab]heptalene-2-yl)-6-methyl-5-(trifluoromethyl)pyridin-2-amine] | 0.33 | – | 19.2
Cc1c(F)c(N)cc(-c2nc3c4c(nc(OC[C@H]5CC[C@@H]6C(=O)N(C)CCN56)nc4c2F)N2C[C@H]4CC[C@H](N4)[C@H]2[C@H](C)O3)c1C(F)(F)F (relative stereo) [Compound 123, 6-((((5S,5aS,6S,9R)-2-(5-Amino-4-fluoro-3-methyl-2-(trifluoromethyl)phenyl)-1-fluoro-5-methyl-5a,6,7,8,9,10-hexahydro-5H-4-oxa-3,10a,11,13,14-pentaaza-6,9-methanonaphtho[1,8-ab]heptalen-12-yl)oxy)methyl)-2-methylhexahydropyrrolo[1,2-a]pyrazin-1(2H)-one] | 0.7 | – | –
C[C@@H]1Oc2nc(-c3cc(N)cc(F)c3C(F)(F)F)c(F)c3nc(OC[C@H]4CC[C@@H]5COC(C)(C)CN45)nc(c23)N2C[C@H]3CC[C@H](N3)[C@@H]12 (relative stereo) [Compound 125, 3-((5S,5aS,6S,9R)-12-((3,3-dimethylhexahydro-1H-pyrrolo[2,1-c][1,4]oxazin-6-yl)methoxy)-1-fluoro-5-methyl-5a,6,7,8,9,10-hexahydro-5H-4-oxa-3,10a,11,13,14-pentaaza-6,9-methanonaphtho[1,8-ab]heptalen-2-yl)-5-fluoro-4-(trifluoromethyl)aniline] | 0.23 | – | –
Cc1c(F)c(N)cc(-c2nc3c4c(nc(OC[C@@]56CCCN5C[C@H](F)C6)nc4c2F)N2CCNC[C@H]2[C@H](C)O3)c1C(F)(F)F (single isomer, unassigned) [235 (isomer 1)] | 65.8 | – | 143
Cc1c(F)c(N)cc(-c2nc3c4c(nc(OC[C@@]56CCCN5C[C@H](F)C6)nc4c2F)N2CCNC[C@H]2C(C)O3)c1C(F)(F)F (single isomer, unassigned) [235 (isomer 2)] | 0.48 | – | 2.63
Cc1c(F)c(N)cc(-c2nc3c4c(nc(OC[C@@]56CCCN5C[C@H](F)C6)nc4c2F)N2C[C@H]4CC[C@H](N4)[C@@H]2[C@H](C)O3)c1C(F)(F)F (single isomer, unassigned) [237 (isomer 1)] | 1910 | – | 1020
Cc1nc(N)cc(-c2nc3c4c(nc(OC[C@@]56CCN5CC(F)(F)C6)nc4c2F)N2C[C@H]4CC[C@H](N4)[C@H]2[C@H](C(F)(F)F)O3)c1C(F)(F)F (single isomer, unassigned) [252 (isomer 1)] | 1.17 | – | 25
C#Cc1cccc2cc(O)cc(-c3nc4c5c(nc(OC[C@]67CCN6CC(F)(F)C7)nc5c3F)N3C[C@H]5CC[C@H](N5)[C@H]3[C@H](C)O4)c12 (single isomer, unassigned) [Compound 19] | 0.08 | 1.83 | –
C#Cc1cccc2cc(O)cc(-c3nc4c5c(nc(OC[C@@]67CCN6CC(F)(F)C7)nc5c3F)N3C[C@H]5CC[C@H](N5)[C@H]3[C@H](C)O4)c12 (single isomer, unassigned) [Compound 20] | 0.12 | 6.55 | –
Cc1c(Cl)c(N)cc(-c2nc3c4c(nc(OC[C@@]56CCCN5C[C@H](F)C6)nc4c2F)N2C[C@H]4CC[C@H](N4)[C@H]2[C@H](C)O3)c1C(F)(F)F (single isomer, unassigned) [Compound 200] | 0.1 | – | –
Cc1nc(N)cc(-c2nc3c4c(nc(OCC56CCCN5CC(F)C6)nc4c2F)N2CC4CCC(N4)[C@H]2[C@@H](C(F)(F)F)O3)c1C(F)(F)F (stereo in doubt) [Compound 243, 4-((6R,9S)-1-fluoro-12-(((2S,7aR)-2-fluorotetrahydro-1H-pyrrolizin-7a(5H)-yl)methoxy)-5-(trifluoromethyl)-5a,6,7,8,9,10-hexahydro-5H-4-oxa-3,10a,11,13,14-pentaaza-6,9-methanonaphtho[1,8-ab]heptalene-2-yl)-6-methyl-5-(trifluoromethyl)pyridin-2-amine] | 581 | – | 3960
Cc1cc(N)c(Cl)c(-c2nc3c4c(nc(OC[C@@]56CCCN5C[C@H](F)C6)nc4c2F)N2C[C@H]4CC[C@H](N4)[C@H]2[C@H](C)O3)c1C(F)(F)F [Compound 199, 2-Chloro-3-((5S,5aS,6S,9R)-1-fluoro-12-(((2R,7aS)-2-fluorotetrahydro-1H-pyrrolizin-7a(5H)-yl)methoxy)-5-methyl-5a,6,7,8,9,10-hexahydro-5H-4-oxa-3,10a,11,13,14-pentaaza-6,9-methanonaphtho[1,8-ab]heptalen-2-yl)-5-methyl-4-(trifluoromethyl)aniline] | 0.17 | – | –
Cc1c(F)c(N)cc(-c2nc3c4c(nc(OC[C@@]56CCCN5C[C@H](F)C6)nc4c2F)N2C[C@H]4CC[C@H](N4)[C@H]2[C@@H](C(F)(F)F)O3)c1C(F)(F)F [Compound 246, 2-Fluoro-5-((5S,5aS,6S,9R)-1-fluoro-12-(((2R,7aS)-2-fluorotetrahydro-1H-pyrrolizin-7a(5H)-yl)methoxy)-5-(trifluoromethyl)-5a,6,7,8,9,10-hexahydro-5H-oxa-3,10a,11,13,14-pentaaza-6,9-methanonaphtho[1,8-ab]heptalene-2-yl)-3-methyl-4-(trifluoromethyl)aniline] | – | – | 1200
Cc1nc(N)cc(-c2nc3c4c(nc(OCC5(CN6CC7COCC(C6)C7(F)F)CC5)nc4c2F)N2C[C@H]4CC[C@H](N4)[C@H]2[C@H](C)O3)c1C(F)(F)F [Compound 266, 4-((5S,5aS,6S,9R)-12-((1-((9,9-difluoro-3-oxa-7-azabicyclo[3.3.1]nonon-7-yl)methyl)cyclopropyl)methoxy)-1-fluoro-5-methyl-5a,6,7,8,9,10-hexahydro-5H-4-oxa-3,10a,11,13,14-pentaaza-6,9-methanonaphtho[1,8-ab]heptalene-2-yl)-6-methyl-5-(trifluoromethyl)pyridin-2-amine] | – | – | 1100
